Measured values published in the NIST ThermoML archive (doi:10.1021/je900482x).

Experiment: isobaric coefficient of expansion
Conditions: Liquid, Microcalorimeter

CCCCCCn1cc[n+](C)c1.F[B-](F)(F)F [1-hexyl-3-methylimidazolium tetrafluoroborate]
isobaric coefficient of expansion
Conditions | 5000 kPa | 10000 kPa | 15000 kPa | 20000 kPa | 25000 kPa | 30000 kPa | 35000 kPa | 40000 kPa | 45000 kPa | 50000 kPa
278.15 K | 0.000621 1/K | 0.000613 1/K | 0.000605 1/K | 0.000598 1/K | 0.00059 1/K | 0.000584 1/K | 0.000576 1/K | 0.000572 1/K | 0.000562 1/K | 0.000558 1/K
288.15 K | 0.000616 1/K | 0.000606 1/K | 0.0006 1/K | 0.000593 1/K | 0.000586 1/K | 0.000579 1/K | 0.000572 1/K | 0.000565 1/K | 0.000558 1/K | 0.000555 1/K
298.15 K | 0.00061 1/K | 0.000603 1/K | 0.000595 1/K | 0.000586 1/K | 0.00058 1/K | 0.000573 1/K | 0.000564 1/K | 0.000558 1/K | 0.000552 1/K | 0.000547 1/K
308.15 K | 0.000605 1/K | 0.000596 1/K | 0.000589 1/K | 0.000579 1/K | 0.000572 1/K | 0.000565 1/K | 0.00056 1/K | 0.000553 1/K | 0.000545 1/K | 0.000541 1/K
318.15 K | 0.000599 1/K | 0.000594 1/K | 0.000585 1/K | 0.000573 1/K | 0.000566 1/K | 0.00056 1/K | 0.000554 1/K | 0.000545 1/K | 0.000537 1/K | 0.000532 1/K
328.15 K | 0.000594 1/K | 0.000587 1/K | 0.00058 1/K | 0.000572 1/K | 0.000562 1/K | 0.000555 1/K | 0.000549 1/K | 0.00054 1/K | 0.000536 1/K | 0.000531 1/K
338.15 K | 0.000591 1/K | 0.000584 1/K | 0.000575 1/K | 0.000567 1/K | 0.000558 1/K | 0.000553 1/K | 0.000544 1/K | 0.000538 1/K | 0.000532 1/K | 0.000528 1/K
348.15 K | 0.000588 1/K | 0.000582 1/K | 0.000572 1/K | 0.000563 1/K | 0.000555 1/K | 0.000548 1/K | 0.000543 1/K | 0.000535 1/K | 0.000529 1/K | 0.000522 1/K

CCn1cc[n+](C)c1.O=S(=O)([N-]S(=O)(=O)C(F)(F)F)C(F)(F)F
isobaric coefficient of expansion
Conditions | 5000 kPa | 10000 kPa | 15000 kPa | 20000 kPa | 25000 kPa | 30000 kPa | 35000 kPa | 40000 kPa | 45000 kPa | 50000 kPa
278.15 K | 0.00067 1/K | 0.000659 1/K | 0.000651 1/K | 0.000645 1/K | 0.000634 1/K | 0.000628 1/K | 0.000623 1/K | 0.000612 1/K | 0.000606 1/K | 0.0006 1/K
288.15 K | 0.000664 1/K | 0.000653 1/K | 0.000646 1/K | 0.00064 1/K | 0.000631 1/K | 0.000623 1/K | 0.000616 1/K | 0.000606 1/K | 0.000601 1/K | 0.000597 1/K
298.15 K | 0.000659 1/K | 0.000651 1/K | 0.000641 1/K | 0.000633 1/K | 0.000624 1/K | 0.000617 1/K | 0.000606 1/K | 0.0006 1/K | 0.000595 1/K | 0.000589 1/K
308.15 K | 0.000656 1/K | 0.000644 1/K | 0.000637 1/K | 0.000627 1/K | 0.000618 1/K | 0.000611 1/K | 0.000605 1/K | 0.000597 1/K | 0.000589 1/K | 0.000581 1/K
318.15 K | 0.000649 1/K | 0.000644 1/K | 0.000634 1/K | 0.000623 1/K | 0.000615 1/K | 0.000607 1/K | 0.000599 1/K | 0.00059 1/K | 0.000582 1/K | 0.000576 1/K
328.15 K | 0.000645 1/K | 0.000635 1/K | 0.000628 1/K | 0.00062 1/K | 0.000609 1/K | 0.000601 1/K | 0.000593 1/K | 0.000584 1/K | 0.000576 1/K | 0.00057 1/K
338.15 K | 0.000643 1/K | 0.000633 1/K | 0.000624 1/K | 0.000614 1/K | 0.000604 1/K | 0.000598 1/K | 0.000588 1/K | 0.000582 1/K | 0.000574 1/K | 0.000569 1/K
348.15 K | 0.00064 1/K | 0.000629 1/K | 0.00062 1/K | 0.000612 1/K | 0.000602 1/K | 0.000595 1/K | 0.000588 1/K | 0.000579 1/K | 0.000572 1/K | 0.000565 1/K

CCCCCCCC[n+]1ccn(C)c1.F[B-](F)(F)F [1-methyl-3-octylimidazolium tetrafluoroborate]
isobaric coefficient of expansion
Conditions | 5000 kPa | 10000 kPa | 15000 kPa | 20000 kPa | 25000 kPa | 30000 kPa | 35000 kPa | 40000 kPa | 45000 kPa | 50000 kPa
278.15 K | 0.000621 1/K | 0.000613 1/K | 0.000605 1/K | 0.000598 1/K | 0.00059 1/K | 0.000584 1/K | 0.000576 1/K | 0.000572 1/K | 0.000562 1/K | 0.000558 1/K
288.15 K | 0.000616 1/K | 0.000606 1/K | 0.0006 1/K | 0.000593 1/K | 0.000586 1/K | 0.000579 1/K | 0.000572 1/K | 0.000565 1/K | 0.000558 1/K | 0.000555 1/K
298.15 K | 0.00061 1/K | 0.000603 1/K | 0.000595 1/K | 0.000586 1/K | 0.00058 1/K | 0.000573 1/K | 0.000564 1/K | 0.000558 1/K | 0.000552 1/K | 0.000547 1/K
308.15 K | 0.000605 1/K | 0.000596 1/K | 0.000589 1/K | 0.000579 1/K | 0.000572 1/K | 0.000565 1/K | 0.00056 1/K | 0.000553 1/K | 0.000545 1/K | 0.000541 1/K
318.15 K | 0.000599 1/K | 0.000594 1/K | 0.000585 1/K | 0.000573 1/K | 0.000566 1/K | 0.00056 1/K | 0.000554 1/K | 0.000545 1/K | 0.000537 1/K | 0.000532 1/K
328.15 K | 0.000594 1/K | 0.000587 1/K | 0.00058 1/K | 0.000572 1/K | 0.000562 1/K | 0.000555 1/K | 0.000549 1/K | 0.00054 1/K | 0.000536 1/K | 0.000531 1/K
338.15 K | 0.000591 1/K | 0.000584 1/K | 0.000575 1/K | 0.000567 1/K | 0.000558 1/K | 0.000553 1/K | 0.000544 1/K | 0.000538 1/K | 0.000532 1/K | 0.000528 1/K
348.15 K | 0.000588 1/K | 0.000582 1/K | 0.000572 1/K | 0.000563 1/K | 0.000555 1/K | 0.000548 1/K | 0.000543 1/K | 0.000535 1/K | 0.000529 1/K | 0.000522 1/K
